Where a name gives a salt, the structure may show the parent alone.
The compounds below were run against PDE10A (Homo sapiens (Human), UniProt Q9Y233) (assay: Measurement of PDE10A inhibitory activity-2 (PDE10A fraction prepared from MOLT-4 cells)). Settings: PDE10A fraction from MOLT-4 cells (peak around 250 mM NaCl).
Assay type: biochemical
Description: A human acute lymphoblastic lymphoma T cell line MOLT-4 (which can be purchased under ATCC No. CRL-1582 from ATCC) was cultured in an RPMI1640 medium containing 10% fetal bovine serum to obtain 5×10^8 MOLT-4 cells. The cells were recovered by centrifugation and suspended in 10 ml of buffer solution A (25 mM Tris-HCl, 5 mM 2-mercaptoethanol, 2 mM benzamidine, 2 mM EDTA, and 0.1 mM 4-(2-aminoethyl)benzenesulfonyl hydrochloride, pH 7.5). The cells were homogenized using a Polytron homogenizer and centrifuged (4° C., 25,000 g, 10 minutes). Then, the supernatant was further ultracentrifuged (4° C., 100,000 g, 60 minutes). The obtained supernatant was filtered through a 0.2 μm filter to obtain a soluble fraction.
HiTrap Q HP column (5 ml×2, GE Healthcare Japan Corp.) equilibrated with buffer solution A was charged with the obtained soluble fraction. Phosphodiesterase was eluted with 300 ml of buffer solution A containing a linear gradient solution of 0 to 0.8 M NaCl to recover sixty 5-ml fractions. Each fraction was tested for cAMP-metabolizing phosphodiesterase activity.
On the other hand, total RNA was prepared from Jurkat cells, one type of human T cell, and similarly subjected to RT-PCR. […] Eur J Biochem. 1999, 266 (3), 1118-2 has reported that PDE10A from the rat striatum and testis is eluted as an active peak centered around 250 mM NaCl.
For these reasons, this fraction was used as a solution for the evaluation of PDE10A inhibitory activity. The obtained solution was used to calculate the inhibitory activity (IC50) of a test compound in the same way as in the aforementioned test.

Chain of PDE10A (Q9Y233 whole entry): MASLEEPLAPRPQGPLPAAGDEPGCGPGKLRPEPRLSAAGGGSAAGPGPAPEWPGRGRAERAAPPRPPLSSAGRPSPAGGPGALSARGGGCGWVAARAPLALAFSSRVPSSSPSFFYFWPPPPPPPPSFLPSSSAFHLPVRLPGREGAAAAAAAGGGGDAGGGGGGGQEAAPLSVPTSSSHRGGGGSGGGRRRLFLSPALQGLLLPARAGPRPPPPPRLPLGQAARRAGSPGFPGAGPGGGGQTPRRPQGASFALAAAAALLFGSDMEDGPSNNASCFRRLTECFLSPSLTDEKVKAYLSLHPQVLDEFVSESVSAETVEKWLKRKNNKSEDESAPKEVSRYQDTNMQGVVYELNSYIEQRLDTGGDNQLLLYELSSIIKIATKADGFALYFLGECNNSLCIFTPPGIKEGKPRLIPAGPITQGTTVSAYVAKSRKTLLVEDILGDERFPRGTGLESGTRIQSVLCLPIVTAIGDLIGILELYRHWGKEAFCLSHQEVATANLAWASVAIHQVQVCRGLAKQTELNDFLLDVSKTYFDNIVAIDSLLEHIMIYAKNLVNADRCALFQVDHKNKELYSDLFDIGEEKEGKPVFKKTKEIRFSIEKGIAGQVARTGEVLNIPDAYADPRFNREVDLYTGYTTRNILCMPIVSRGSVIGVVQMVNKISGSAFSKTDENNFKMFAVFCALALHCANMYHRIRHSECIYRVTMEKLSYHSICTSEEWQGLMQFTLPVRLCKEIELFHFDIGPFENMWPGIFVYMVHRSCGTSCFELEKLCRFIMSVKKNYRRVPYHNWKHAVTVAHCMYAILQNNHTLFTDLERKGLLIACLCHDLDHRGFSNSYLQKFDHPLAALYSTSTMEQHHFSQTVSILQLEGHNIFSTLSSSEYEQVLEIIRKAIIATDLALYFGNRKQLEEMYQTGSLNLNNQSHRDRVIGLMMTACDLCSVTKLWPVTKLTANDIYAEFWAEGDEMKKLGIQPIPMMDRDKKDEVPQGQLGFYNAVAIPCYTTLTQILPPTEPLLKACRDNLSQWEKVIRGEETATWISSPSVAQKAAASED

Row | IC50 | SMILES
1 | 12 nM | CC(=O)c1ccc(C(C)=O)c2sc(C(=O)Nc3cc(C(C)(C)O)c4ccccc4n3)cc12 [Example 8, 4,7-Diacetyl-N-(4-(2-hydroxypropan-2-yl)quinolin-2-yl)benzo[b]thiophene-2-carboxamide]
2 | 1.6 nM | CC(=O)c1ccc(C(C)=O)c2c(C)c(C(=O)Nc3ccc4ccccc4n3)sc12 [Example 1, 4,7-Diacetyl-3-methyl-N-(quinolin-2-yl)benzo[b]thiophene-2-carboxamide]
3 | 1.2 nM | COCc1ccc(C(C)=O)c2sc(C(=O)Nc3ccc4c(C(=O)NN5CCCC5)cccc4n3)c(C)c12 [Example 94, 2-(7-Acetyl-4-(methoxymethyl)-3-methylbenzo[b]thiophene-2-carboxamido)-N-(pyrrolidin-1-yl)quinoline-5-carboxamide]
4 | 1.6 nM | COCc1ccc(C(C)=O)c2sc(C(=O)Nc3ccc4c(C)cccc4n3)c(C)c12 [Example 108, 7-Acetyl-4-(methoxymethyl)-3-methyl-N-(5-methylquinolin-2-yl)benzo[b]thiophene-2-carboxamide]
5 | 0.11 nM | COCc1ccc(C(C)=O)c2sc(C(=O)Nc3ccc4c(C(=O)O)cccc4n3)c(C)c12 [Example 93, 2-(7-Acetyl-4-(methoxymethyl)-3-methylbenzo[b]thiophene-2-carboxamido)quinoline-5-carboxylic acid]
6 | 0.47 nM | Cc1c(C(=O)Nc2cc(C(C)(C)O)c3ccccc3n2)sc2c(C(=O)C(C)C)cccc12 [Example 18, N-(4-(2-Hydroxypropan-2-yl)quinolin-2-yl)-7-isobutyryl-3-methylbenzo[b]thiophene-2-carboxamide]
7 | 0.5 nM | COCc1ccc(C(C)=O)c2sc(C(=O)Nc3cc(CN4CCCC(O)C4)c4ccccc4n3)c(C)c12 (stereo not shown) [Example 37, 7-Acetyl-N-(4-((3-hydroxypiperidin-1-yl)methyl)quinolin-2-yl)-4-(methoxymethyl)-3-methylbenzo[b]thiophene-2-carboxamide]
8 | 2 nM | CC(=O)c1ccc(C(C)=O)c2c(C)c(C(=O)Nc3cc(C(C)O)c4ccccc4n3)sc12 (stereo not shown) [Example 13, 4,7-Diacetyl-N-(4-(1-hydroxyethyl)quinolin-2-yl)-3-methylbenzo[b]thiophene-2-carboxamide]
9 | 0.92 nM | Cc1c(C(=O)Nc2cc(C(C)(C)O)c3ccccc3n2)sc2c(C(=O)C3CC3)cccc12 [Example 19, 7-(Cyclopropylcarbonyl)-N-(4-(2-hydroxypropan-2-yl)quinolin-2-yl)-3-methylbenzo[b]thiophene-2-carboxamide]
10 | 4 nM | Cc1c(C(=O)Nc2cc(C(C)(C)O)c3ccccc3n2)sc2c(C(=O)C3CCCC3)cccc12 [Example 25, 7-(Cyclopentylcarbonyl)-N-(4-(2-hydroxypropan-2-yl)quinolin-2-yl)-3-methylbenzo[b]thiophene-2-carboxamide]
11 | 1.2 nM | CC(=O)c1ccc(C(C)=O)c2c(C)c(C(=O)Nc3cc(CN4CC(O)C4)c4ccccc4n3)sc12 [Example 52, 4,7-Diacetyl-N-(4-((3-hydroxyazetidin-1-yl)methyl)quinolin-2-yl)-3-methylbenzo[b]thiophene-2-carboxamide]
12 | 2.9 nM | COCc1ccc(C(C)=O)c2sc(C(=O)Nc3cc(CN4CCNCC4)c4ccccc4n3)c(C)c12 [Example 124, 7-Acetyl-4-(methoxymethyl)-3-methyl-N-(4-(piperazin-1-ylmethyl)quinolin-2-yl)benzo[b]thiophene-2-carboxamide]
13 | 0.21 nM | COCc1ccc(C(C)=O)c2sc(C(=O)Nc3ccc4c(C(=O)N5CCC5)cccc4n3)c(C)c12 [Example 98, 7-Acetyl-N-(5-((azetidin-1-yl)carbonyl)quinolin-2-yl)-4-(methoxymethyl)-3-methylbenzo[b]thiophene-2-carboxamide]
14 | 1 nM | Cc1c(C(=O)Nc2cc(C(C)(C)O)c3ccccc3n2)sc2c(C(=O)C(C)(C)C)cccc12 [Example 22, N-(4-(2-Hydroxypropan-2-yl)quinolin-2-yl)-3-methyl-7-pivaloylbenzo[b]thiophene-2-carboxamide]
15 | 0.67 nM | Cc1c(C(=O)Nc2cc(C(C)(C)O)c3ccccc3n2)sc2c(C(=O)C3CCC3)cccc12 [Example 21, 7-(Cyclobutylcarbonyl)-N-(4-(2-hydroxypropan-2-yl)quinolin-2-yl)-3-methylbenzo[b]thiophene-2-carboxamide]
16 | 3 nM | CCOCc1ccc(C(C)=O)c2sc(C(=O)Nc3cc(C(C)(C)O)c4ccccc4n3)c(C)c12 [Example 29, 7-Acetyl-4-(ethoxymethyl)-N-(4-(2-hydroxypropan-2-yl)quinolin-2-yl)-3-methylbenzo[b]thiophene-2-carboxamide]

Row | IC50 | SMILES
17 | 0.29 nM | COCc1ccc(C(C)=O)c2sc(C(=O)Nc3cc(CN4CCC(O)C4)c4ccccc4n3)c(C)c12 (stereo not shown) [Example 35, 7-Acetyl-N-(4-((3-hydroxypyrrolidin-1-yl)methyl)quinolin-2-yl)-4-(methoxymethyl)-3-methylbenzo[b]thiophene-2-carboxamide]
18 | 10 nM | CCCCC(=O)c1cccc2c(C)c(C(=O)Nc3cc(C(C)(C)O)c4ccccc4n3)sc12 [Example 20, N-(4-(2-Hydroxypropan-2-yl)quinolin-2-yl)-3-methyl-7-pentanoylbenzo[b]thiophene-2-carboxamide]
19 | 0.44 nM | COCc1ccc(C(C)=O)c2sc(C(=O)Nc3cc(CN4CCC(F)CC4)c4ccccc4n3)c(C)c12 [Example 46, 7-Acetyl-N-(4-((4-fluoropiperidin-1-yl)methyl)quinolin-2-yl)-4-(methoxymethyl)-3-methylbenzo[b]thiophene-2-carboxamide]
20 | 2.6 nM | COCc1ccc(C(C)=O)c2sc(C(=O)Nc3cc(C(=O)N4CC[C@@H](O)C4)c4ccccc4n3)c(C)c12 [Example 50, (R)-7-Acetyl-N-(4-((3-hydroxypyrrolidin-1-yl)carbonyl)quinolin-2-yl)-4-(methoxymethyl)-3-methylbenzo[b]thiophene-2-carboxamide]
21 | 0.85 nM | COCc1ccc(C(C)=O)c2sc(C(=O)Nc3cc(CN4CCC(F)(F)C4)c4ccccc4n3)c(C)c12 [Example 48, 7-Acetyl-N-(4-((3,3-difluoropyrrolidin-1-yl)methyl)quinolin-2-yl)-4-(methoxymethyl)-3-methylbenzo[b]thiophene-2-carboxamide]
22 | 1.6 nM | CCOCc1cccc2nc(NC(=O)c3sc4c(C(C)=O)ccc(COC)c4c3C)ccc12 [Example 70, 7-Acetyl-N-(5-(ethoxymethyl)quinolin-2-yl)-4-(methoxymethyl)-3-methylbenzo[b]thiophene-2-carboxamide]
23 | 0.86 nM | COCc1ccc(C(C)=O)c2sc(C(=O)Nc3ccc4c(COC(C)=O)cccc4n3)c(C)c12 [Example 83, (2-(7-Acetyl-4-(methoxymethyl)-3-methylbenzo[b]thiophene-2-carboxamido)quinolin-5-yl)methylacetate]
24 | 0.12 nM | COCc1cccc2nc(NC(=O)c3sc4c(C(C)=O)ccc(CO)c4c3C)ccc12 [Example 113, 7-Acetyl-4-(hydroxymethyl)-N-(5-(methoxymethyl)quinolin-2-yl)-3-methylbenzo[b]thiophene-2-carboxamide]
25 | 9.1 nM | COC(C)c1ccc(C(C)=O)c2sc(C(=O)Nc3cc(C(C)(C)O)c4ccccc4n3)c(C)c12 (stereo not shown) [Example 32, 7-Acetyl-N-(4-(2-hydroxypropan-2-yl)quinolin-2-yl)-4-(1-methoxyethyl)-3-methylbenzo[b]thiophene-2-carboxamide]
26 | 0.89 nM | COC1CN(C(=O)c2cccc3nc(NC(=O)c4sc5c(C(C)=O)ccc(CO)c5c4C)ccc23)C1 [Example 115, 7-Acetyl-4-(hydroxymethyl)-N-(5-((3-methoxyazetidin-1-yl)carbonyl)quinolin-2-yl)-3-methylbenzo[b]thiophene-2-carboxamide]
27 | 11 nM | CCCOCc1ccc(C(C)=O)c2sc(C(=O)Nc3cc(C(C)(C)O)c4ccccc4n3)c(C)c12 [Example 30, 7-Acetyl-N-(4-(2-hydroxypropan-2-yl)quinolin-2-yl)-3-methyl-4-(propoxymethyl)benzo[b]thiophene-2-carboxamide]
28 | 20 nM | CCC(=O)c1ccc(C(C)=O)c2sc(C(=O)Nc3cc(C(C)(C)O)c4ccccc4n3)c(C)c12 [Example 10, 7-Acetyl-N-(4-(2-hydroxypropan-2-yl)quinolin-2-yl)-3-methyl-4-propionylbenzo[b]thiophene-2-carboxamide]
29 | 1.5 nM | CC(=O)c1ccc(C(C)=O)c2c(C)c(C(=O)Nc3cc(CN4CCC(O)C4)c4ccccc4n3)sc12 (stereo not shown) [Example 51, 4,7-Diacetyl-N-(4-((3-hydroxypyrrolidin-1-yl)methyl)quinolin-2-yl)-3-methylbenzo[b]thiophene-2-carboxamide]
30 | 18 nM | COCc1ccc(C(C)=O)c2sc(C(=O)Nc3cc(Cl)c4ccccc4n3)c(C)c12 [Example 53, 7-Acetyl-N-(4-chloroquinolin-2-yl)-4-(methoxymethyl)-3-methylbenzo[b]thiophene-2-carboxamide]
31 | 0.9 nM | COCc1ccc(C(C)=O)c2sc(C(=O)Nc3cc(C(C)O)c4ccccc4n3)c(C)c12 (stereo not shown) [Example 33, 7-Acetyl-N-(4-(1-hydroxyethyl)quinolin-2-yl)-4-(methoxymethyl)-3-methylbenzo[b]thiophene-2-carboxamide hydrochloride]
